The term microsomal CLint denotes the rate of metabolic loss divided by the concentration. Usually bioavailability stands for dose-corrected exposure relative to a reference, in per cent. The Tmax is the time at which the peak concentration occurs. Broadly, the Kp is tissue or fluid exposure divided by exposure in the circulation. For orientation: Cmax means the peak of the concentration-time curve. In general, clearance refers to the volume of plasma or blood freed of the substance per unit of time. High values mean a high capacity for elimination, low ones a low capacity for elimination. For orientation: half-life means the time needed for the level to fall by half in the phase considered. Read a high half-life as slow decline. As usually defined, the solubility is how much of the substance goes into solution per volume.

The text below walks through data of ChEMBL document CHEMBL1138444 (J Med Chem, 2009).

A short description of data set [1]: in vitro. The following applies: human, microsomes.
A short description of data set [2]: in vitro. The note with it: rat, microsomes.
Data set [3] can be described thus: in vivo. The note with it: rat, po.
The nature of data set [4]: in vivo. The following applies: rat.
The nature of data set [5]: in vivo. The following applies: rat, brain and plasma, ip.
The nature of data set [6]: in vivo. The following applies: rat. This is another data set of the same source.
Data set [7] is filed under the species Rattus norvegicus. The following applies: in vivo.
Data set [8] in a line: in vivo. The following applies: rat. The source holds these as a separate data set.
For data set [9], the species on record is Mus musculus. Put plainly: animal or person. The following applies: NSA, ip, read-out: INH.
The species entered for data set [10] is Rattus norvegicus. Put plainly: animal or person. The note with it: Sprague-Dawley, po, read-out: INH.
The species entered for data set [11] is Mus musculus. Put plainly: animal or person. The note with it: NSA, ip, read-out: INH. This is another data set of the same source.
The nature of data set [12]: physchem. The note with it: polyethylene glycol.

Where only a bound is given, the exact number is not on record here.

Take `O=C(NCc1cccc(Cl)c1)c1ccc2c(c1)N=C(N1CCCCC1)c1ccccc1S2`: the microsomal CLint in data set [1] turned out to be 265 µL/min/mg; in data set [2], 644 µL/min/mg.

Take `O=C(NCc1cccc(Cl)c1)c1ccc2c(c1)N=C(N1CCC(F)(F)CC1)c1ccccc1S2`: the microsomal CLint in data set [1] turned out to be 40 µL/min/mg; in data set [2], 66 µL/min/mg.

For `O=C(NN1CCCCC1)c1ccc2c(c1)N=C(C1CCCCC1)c1ccccc1S2`, the bioavailability in data set [3] worked out at 13%. Also, in [4], the Tmax worked out at 0.5 h. In addition, the microsomal CLint in data set [1] was 84 µL/min/mg; in data set [2], 846 µL/min/mg. This compound also showed a Kp in data set [5] of 4. The peak level in [6] (Cmax) was 651 nM. Besides, the clearance in data set [7] turned out to be 7.36 mL/min/kg. In data set [8], this compound had a half-life of 2.1 h.

`CCCCNC(=O)c1ccc2c(c1)N=C(c1ccc(Cl)cc1)c1ccccc1S2`: the inhibition in vivo at 1 mg/kg in data set [9] is 71%. Moreover, the bioavailability in data set [3] was found to be 25%. The Tmax in [4] is 6 h. For the same compound, the microsomal CLint in data set [1] is 24 µL/min/mg; in [2], 89 µL/min/mg. Moreover, the inhibition in vivo at 10 mg/kg in data set [10] came out at 69%. In addition, in data set [11], the inhibition in vivo at 3 mg/kg turned out to be 82%. In [12], this compound gave a solubility of more than 3.7 mg/mL. In data set [6], this compound returned a Cmax of 677 nM. In addition, in [7], the clearance is 0.51 mL/min/kg. The same compound gave a half-life in data set [8] of 5.8 h.

Turning to `CCCCNC(=O)c1ccc2c(c1)N=C(c1ccc(Cl)c(Cl)c1)c1ccccc1S2`, in data set [11], the inhibition in vivo at 3 mg/kg worked out at 58%. Further, in data set [12], the solubility is more than 14 mg/mL. Further, the microsomal CLint in data set [2] was 32 µL/min/mg.

For `CC(C)CNC(=O)c1ccc2c(c1)N=C(c1ccc(Cl)s1)c1ccccc1S2`, the inhibition in vivo at 10 mg/kg in data set [10] was 54%. Moreover, in [11], the inhibition in vivo at 3 mg/kg came to 73%.

Turning to `CCCC1=Nc2cc(C(=O)NC3CCN(C(=O)OCC)CC3)ccc2Sc2ccccc21`, the microsomal CLint in data set [1] is 279 µL/min/mg; in data set [2], 539 µL/min/mg.

In the case of `CCCCNC(=O)c1ccc2c(c1)N=C(c1ccc(F)c(Cl)c1)c1ccccc1S2`, the inhibition in vivo at 1 mg/kg in data set [9] turned out to be 70%. Besides, the microsomal CLint in data set [1] amounted to 16 µL/min/mg; in data set [2], 58 µL/min/mg. The inhibition in vivo at 10 mg/kg in data set [10] stood at 59%. Moreover, in data set [11], the inhibition in vivo at 3 mg/kg turned out to be 94%. In data set [12], this compound came in with a solubility of more than 13 mg/mL.

In the case of `CN/C(=N\S(=O)(=O)c1ccc(Cl)cc1)N1C[C@H](c2ccccc2)C(c2ccc(Cl)cc2)=N1` (racemic) [IBIPINABANT], the inhibition in vivo at 1 mg/kg in data set [9] was found to be 51%. The inhibition in vivo at 3 mg/kg in [11] was 82%.

Regarding `Cc1c(C(=O)NN2CCCCC2)nn(-c2ccc(Cl)cc2Cl)c1-c1ccc(Cl)cc1` [RIMONABANT], in data set [9], the inhibition in vivo at 1 mg/kg is 70%. For the same compound, the microsomal CLint came to 41 µL/min/mg in [1] and 159 µL/min/mg in data set [2]. For the same compound, in data set [10], the inhibition in vivo at 10 mg/kg came to 55%.
